Reference: paper PMC8729770, “In Vitro Evaluation of Antimicrobial Peptides from the Black Soldier Fly (Hermetia Illucens) against a Selection of Human Pathogens” (Microbiology Spectrum, 2022)
pIC50: −log10 of the molar value. ≈ marks a conversion by molar mass, not a printed value. Read-outs that look alike come from different tables or passages of the source. Ends that are not written are not given here. Peptide text beside a SMILES is read from it.

Columns and labels:
S. aureus ATCC 6538 = assay type: cell-based, Staphylococcus aureus; conditions: for MIC S. aureus ATCC 6538: determined visually; for MIC S. aureus ATCC 6538 / pIC50: 16 h; for MBC S. aureus ATCC 6538: wells without visual growth plated on MHA, ≥3 log reduction vs growth control; for pIC50: MHB, 37°C, resazurin, 50% growth inhibition
Procedure: (§1) To detect antimicrobial activity of the BSF AMPs, the peptide library underwent screening against a panel of microorganisms, consisting of S. aureus ATCC 6538, E. coli ATCC 8739, P. aeruginosa ATCC 9027, C. albicans B59630, and A. fumigatus B42928. Serial dilutions of the peptides were prepared from the DMSO stock solutions in sterile demineralized water in 96-well plates using an automated liquid-handling workstation (Beckman Coulter Biomek 3000) in end volumes of 10 μL. The final in-plate concentration of DMSO was <1%. Peptide concentrations ranged from 64 μM to 0.25 μM for the first evaluation, and from 32 μM to 0.016 μM for the independent repeat. As references, doxycycline (Sigma-Aldrich; S. aureus, E. coli, P. aeruginosa), flucytosine (Sigma-Aldrich; C. albicans), and econazole (Sigma-Aldrich; A. fumigatus) were used. Suspensions of a starting inoculum of 5 × 10^3 CFU/mL (E. coli, S. aureus, C. albicans, A. fumigatus) and 5 × 10^4 CFU/mL (P. aeruginosa) were prepared in MHB (bacterial species) or RPMI medium (fungal species) and 190 μL was added to the 96-well plates. Plates were incubated for 16 h (E. coli, S. aureus, P. aeruginosa), 24 h (C. albicans), or 48 h (A. fumigatus) at 37°C. After incubation, read-out of the antimicrobial activity was performed using a resazurin assay. Then, 20 μL of a 0.01% (wt/vol) resazurin (Sigma-Aldrich) solution was added to each well and plates were incubated for 15 min (S. aureus), 30 min (E. coli), 45 min (P. aeruginosa), 4 h (C. albicans), or 17 h (A. fumigatus) to allow resazurin reduction to take place. Fluorescence was read using a microplate reader (Telix) at λexcitation = 550 nm and λemission = 590. […] MIC values were determined visually. Medium in the wells with no visual growth was plated on MHA to detect the MBC, defined as ≥3 log reduction compared with the growth control.

E. coli ATCC 8739 = assay type: cell-based, Escherichia coli; conditions: for pIC50: MHB, 37°C, resazurin
Procedure: as §1

P. aeruginosa ATCC 9027 = assay type: cell-based, Pseudomonas aeruginosa; conditions: for pIC50: MHB, 37°C, resazurin
Procedure: as §1

[1] = tested on: MRC5-SV2 cell line of human, embryonic lung fibroblasts; experiment: Cytotoxicity screening of the peptide library; assay type: cell-based; conditions: 72 h, 37°C, resazurin fluorescence
Procedure: To determine early signs of peptide toxicity, the library was tested against the MRC5-SV2 cell line of human, embryonic lung fibroblasts (Sigma-Aldrich). Peptides were serially diluted in 96-well plates as described earlier at concentrations ranging from 64 μM to 0.25 μM for the first screening, and from 32 μM to 0.016 μM for the independent repeat. Tamoxifen (Sigma-Aldrich) was included as a reference compound. After preparation of the test plates, cell suspension (190 μL) of 1.5 × 10^5 cells/mL in complete minimum essential medium (Gibco) was added to the peptides. Plates were incubated for 72 h at 37°C in a 5% CO2 incubator (Binder). Afterwards, 50 μL of a 0.01% (wt/vol) resazurin (Sigma-Aldrich) solution was added to the wells to detect cell viability.

C. albicans B59630 = assay type: cell-based, Candida albicans; conditions: RPMI, 24 h, 37°C, resazurin
Procedure: as §1

A. fumigatus B42928 = assay type: cell-based, Aspergillus fumigatus; conditions: RPMI, 48 h, 37°C, resazurin
Procedure: as §1

[2] = repeat 1, 64-0.25 μM, determined visually, 16 h
[3] = repeat 2, 32-0.016 μM, determined visually, 16 h
[4] = repeat 2, plated on MHA, ≥3 log reduction vs growth control
[5] = repeat 1, plated on MHA, ≥3 log reduction vs growth control

Row | Molecule | MIC S. aureus ATCC 6538 (S. aureus ATCC 6538; repeat 1, 64-0.25 μM) [µM] | MIC S. aureus ATCC 6538 (S. aureus ATCC 6538; repeat 2, 32-0.016 μM) [µM] | MIC E. coli ATCC 8739 (E. coli ATCC 8739; [2]) [µM] | MIC E. coli ATCC 8739 (E. coli ATCC 8739; [3]) [µM] | MIC P. aeruginosa ATCC 9027 (P. aeruginosa ATCC 9027; [2]) [µM] | MIC P. aeruginosa ATCC 9027 (P. aeruginosa ATCC 9027; [3]) [µM] | MBC E. coli ATCC 8739 (E. coli ATCC 8739; [4]) [µM] | MIC P. aeruginosa ATCC 9027 (P. aeruginosa ATCC 9027; ATCC 9027, 16 h) [µM] | MBC P. aeruginosa ATCC 9027 (P. aeruginosa ATCC 9027; [5]) | MBC P. aeruginosa ATCC 9027 (P. aeruginosa ATCC 9027; [4]) [µM] | other results
1 | CC[C@H](C)[C@H](NC(=O)[C@H](CS)NC(=O)[C@H](Cc1c[nH]cn1)NC(=O)[C@H](C)NC(=O)[C@H](C)NC(=O)[C@H](CS)NC(=O)[C@H](C)NC(=O)[C@H](C)NC(=O)[C@H](Cc1c[nH]cn1)NC(=O)CNC(=O)[C@@H](NC(=O)[C@H](CCCCN)NC(=O)[C@H](Cc1ccccc1)NC(=O)[C@@H]1CCCN1C(=O)[C@H](CO)NC(=O)[C@H](CC(C)C)NC(=O)[C@H](CC(C)C)NC(=O)[C@H](CC(=O)O)NC(=O)[C@H](CS)NC(=O)[C@@H](NC(=O)[C@H](C)N)[C@@H](C)O)C(C)C)C(=O)N[C@@H](C)C(=O)N[C@@H](CCCNC(=N)N)C(=O)NCC(=O)N[C@@H](CCCCN)C(=O)N[C@@H](CCCNC(=N)N)C(=O)NCC(=O)NCC(=O)N[C@@H](Cc1c[nH]c2ccccc12)C(=O)N[C@@H](CS)C(=O)N[C@@H](CC(=O)O)C(=O)N[C@@H](CCCCN)C(=O)N[C@@H](CCCNC(=N)N)C(=O)N[C@@H](C)C(=O)N[C@H](C(=O)N[C@@H](CS)C(=O)N[C@@H](CC(N)=O)C(=O)N[C@@H](CS)C(=O)N[C@@H](CCCNC(=N)N)C(=O)N[C@@H](CCCCN)C(=O)O)C(C)C [Hill-Def2a] (H-ATCDLLSPFKVGHAACAAHCIARGKRGGWCDKRAVCNCRK-OH; N-terminus and C-terminus assumed) | 0.25 (≈ 1.07 µg/mL) | 2.00 (≈ 8.55 µg/mL) | > 64.00 | > 32.00 | > 64.00 | > 32.00 |  |  |  |  | MBC S. aureus ATCC 6538 (S. aureus ATCC 6538; repeat 1): static; MBC S. aureus ATCC 6538 (S. aureus ATCC 6538; repeat 2): static
2 | CC[C@H](C)[C@H](NC(=O)[C@H](CS)NC(=O)[C@H](Cc1c[nH]cn1)NC(=O)[C@H](CC(C)C)NC(=O)[C@H](C)NC(=O)[C@H](CS)NC(=O)[C@H](C)NC(=O)[C@H](C)NC(=O)[C@H](Cc1c[nH]cn1)NC(=O)CNC(=O)[C@@H](NC(=O)[C@H](CCCCN)NC(=O)[C@H](Cc1ccccc1)NC(=O)[C@@H]1CCCN1C(=O)[C@H](CO)NC(=O)[C@H](CC(C)C)NC(=O)[C@H](CC(C)C)NC(=O)[C@H](CC(=O)O)NC(=O)[C@H](CS)NC(=O)[C@@H](NC(=O)[C@H](C)N)[C@@H](C)O)C(C)C)C(=O)N[C@@H](C)C(=O)N[C@@H](CC(C)C)C(=O)NCC(=O)N[C@@H](CCCNC(=N)N)C(=O)N[C@@H](CCCNC(=N)N)C(=O)NCC(=O)NCC(=O)N[C@@H](Cc1c[nH]c2ccccc12)C(=O)N[C@@H](CS)C(=O)N[C@@H](CC(=O)O)C(=O)NCC(=O)N[C@@H](CCCNC(=N)N)C(=O)N[C@@H](C)C(=O)N[C@H](C(=O)N[C@@H](CS)C(=O)N[C@@H](CC(N)=O)C(=O)N[C@@H](CS)C(=O)N[C@@H](CCCNC(=N)N)C(=O)N[C@@H](CCCNC(=N)N)C(=O)O)C(C)C [Hill-Def4] (H-ATCDLLSPFKVGHAACALHCIALGRRGGWCDGRAVCNCRR-OH; N-terminus and C-terminus assumed) | 1.00 (≈ 4.26 µg/mL) | 8.00 (≈ 34.1 µg/mL) | > 64.00 | > 32.00 | > 64.00 | > 32.00 |  |  |  |  | bactericidal or bacteriostatic mechanism (S. aureus ATCC 6538; MBC determination): bacteriostatic; MBC S. aureus ATCC 6538 (S. aureus ATCC 6538; repeat 1): static; MBC S. aureus ATCC 6538 (S. aureus ATCC 6538; repeat 2): static
3 | AMCDLLSGLNMGRSVCAMRCILKGHRGGWCDDQGVCNCRV [Hill-Def5, Defensin without disulfide bridges] | > 64.00 | > 32.00 | > 64.00 | > 32.00 | > 64.00 | > 32.00 |  |  |  |  | pIC50 ([1]; repeat 1, first screening 64-0.25 μM): < 4.19; pIC50 ([1]; repeat 2, independent repeat 32-0.016 μM): < 4.49; pIC50 (S. aureus ATCC 6538; repeat 1, 64-0.25 μM): < 4.19; pIC50 (S. aureus ATCC 6538; repeat 2, 32-0.016 μM): < 4.49; pIC50 (E. coli ATCC 8739; repeat 1, 64-0.25 μM, 16 h): < 4.19; pIC50 (E. coli ATCC 8739; repeat 2, 32-0.016 μM, 16 h): < 4.49; pIC50 (P. aeruginosa ATCC 9027; repeat 1, 64-0.25 μM, 16 h): < 4.19; pIC50 (P. aeruginosa ATCC 9027; repeat 2, 32-0.016 μM, 16 h): < 4.49; pIC50 (C. albicans B59630; repeat 1, 64-0.25 μM): < 4.19; pIC50 (C. albicans B59630; repeat 2, 32-0.016 μM): < 4.49; pIC50 (A. fumigatus B42928; repeat 1, 64-0.25 μM): < 4.19; pIC50 (A. fumigatus B42928; repeat 2, 32-0.016 μM): < 4.49
4 | GWWKRVFKPVEKFGQRVRDAGIQGIEIAQQGANVLATARGGPPQQ-NH2 [Hill-Cec8] | > 64.00 | > 32.00 |  | 2.00 |  | 8.00 | 8.00 | 4.00 | 64.00 µM | 8.00 | MBC E. coli ATCC 8739 (E. coli ATCC 8739; ATCC 8739, 16 h): 1.00 µM; MIC E. coli ATCC 8739 (E. coli ATCC 8739; ATCC 8739, 16 h): 1.00 µM
5 | GWWKRVFKPVEKFGQRVRDAGVQGIAIAQQGANVLATARGGPPQQ-NH2 [Hill-Cec2] | > 64.00 | > 32.00 | 1.00 | 2.00 | 4.00 | 2.00 | 2.00 |  | 16.00 µM | 2.00 | MBC E. coli ATCC 8739 (E. coli ATCC 8739; [5]): 1.00 µM
6 | GWWKRVFKPVEKLGQRVRDAGIQGLEIAQQGANVLATARGGPPQQ-NH2 [Hill-Cec3] | > 64.00 | > 32.00 | 1.00 | 0.50 | 4.00 | 2.00 | 32.00 |  | 16.00 µM | 2.00 | MBC E. coli ATCC 8739 (E. coli ATCC 8739; [5]): 1.00 µM
7 | GWWKRVFKPVEKLGQRVRDAGIQGLEIAQQGANVLATVRGGPPQQ-NH2 [Hill-Cec9] | > 64.00 | > 32.00 |  |  |  | 2.00 |  | 1.00 | static | 2.00 | 
8 | GWWKRVFKPVERLGQRVRDAGIQGLQIAQQGANVLATVRGGPPQQ-NH2 [Hill-Cec4] | > 64.00 | > 32.00 | 1.00 | 2.00 | 1.00 | 2.00 | 2.00 |  | 16.00 µM | 2.00 | MBC E. coli ATCC 8739 (E. coli ATCC 8739; [5]): static
9 | KSWWKKVFKPVERAGQRIRDASIKGLAVAQQGANVLSTIRGGPPVVAPPPQV-NH2 [Hill-Cec13] | > 64.00 | > 32.00 |  |  |  | 2.00 |  | 1.00 | 64.00 µM | 2.00 | 
10 | RSLWKKLFKPVERAGQRIRDATIKGIVIAQQGANVLATIRGGPAIPPGQ-NH2 [Hill-Cec12] | > 64.00 | > 32.00 | 0.25 | 2.00 |  | 2.00 | 8.00 | 1.00 | static | 8.00 | MBC E. coli ATCC 8739 (E. coli ATCC 8739; ATCC 8739, 16 h): 1.00 µM
11 | SWFKKVFKPVEKVGQRVRDAGIQGVAIAQQGANVLATARGGPPH-NH2 [Hill-Cec5] |  |  |  |  |  |  |  |  |  |  | MBC E. coli ATCC 8739 (E. coli ATCC 8739; ATCC 8739, 16 h): 0.50 µM; MBC P. aeruginosa ATCC 9027 (P. aeruginosa ATCC 9027; ATCC 9027, 16 h): 32.00 µM
